Test results as given in PMC7948460, “Volatile allosteric antagonists of mosquito odorant receptors inhibit human-host attraction” (The Journal of Biological Chemistry, 2020).
Values joined by “and” are separate entries in the source; they are usually repeats but may differ in a detail not shown here. Equal values may be shown once. Read-outs that look alike come from different tables or passages of the source.

How the values were obtained:
AaegORco = target: T1, AaegORco (Aedes aegypti, UniProt Q178U6); test: Two-microelectrode voltage-clamp recordings of Xenopus laevis oocytes expressing AaegORco, VUAA1-induced currents; type: cell-based; conditions: 200 μM VUAA1 with equimolar compound; for Normalized response (%) of AaegORco to VUAA1 in combination with compound: printed in picture Fig. 4B
T1 construct: expressed in transfected cells; host or cells: Xenopus laevis oocytes microinjected with cRNA transcribed from the pSP64tRFA vector
T1 sequence (Q178U6 1-478): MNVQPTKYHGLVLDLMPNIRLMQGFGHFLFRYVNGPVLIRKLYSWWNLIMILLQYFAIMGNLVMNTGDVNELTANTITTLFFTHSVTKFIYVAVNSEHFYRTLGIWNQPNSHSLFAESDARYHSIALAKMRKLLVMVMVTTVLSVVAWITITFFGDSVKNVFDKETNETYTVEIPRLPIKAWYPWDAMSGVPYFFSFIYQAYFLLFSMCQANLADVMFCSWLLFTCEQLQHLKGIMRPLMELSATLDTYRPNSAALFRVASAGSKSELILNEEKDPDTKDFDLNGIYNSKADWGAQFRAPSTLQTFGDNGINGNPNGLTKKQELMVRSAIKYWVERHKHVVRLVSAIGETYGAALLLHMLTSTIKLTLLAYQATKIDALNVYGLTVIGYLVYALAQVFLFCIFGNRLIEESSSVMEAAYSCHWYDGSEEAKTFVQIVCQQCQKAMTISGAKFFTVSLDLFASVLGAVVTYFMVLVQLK
Experimental: Across all treatments, we observed a consistent increase in the third VUAA1-induced response relative to the first and second VUAA1 administrations (Fig. 4A). For this reason, the inhibition level (Fig. 4B) was calculated by normalizing the response amplitude elicited by the second stimulation, to the average current responses elicited by the first and last VUAA1 stimulations.
In vitro transcription and two-microelectrode voltage-clamp electrophysiological recordings were performed as described ([62]). Briefly, ORco of Ae. aegypti (AaegORco; GenBank: BK006142.1) was synthesized using the mMESSAGE mMACHINE SP6 kit (ThermoFisher Scientific) from the linearized pSP64tRFA expression vector. The harvested X. laevis oocytes were manually separated from the ovaries prior to collagenase treatment (8 mg/ml, 30 min, 18 °C) in order to remove the follicular layer. Stage V–VI oocytes were rinsed in washing solution (96 mM NaCl, 2 mM KCl, 5 mM MgCl2, and 5 mM Hepes, pH 7.6) and microinjected with a mixture of 1 μl AaegOrco (3 μg/μl) and 2 μl of double-distilled water. Injected oocytes were incubated at 18 °C for 3 days in Ringer’s solution (96 mM NaCl, 2 mM KCl, 5 mM MgCl2, 0.8 mM CaCl2, and 5 mM Hepes, pH 7.6) supplemented with 5% dialyzed horse serum, 50 μg/ml tetracycline, 100 μg/ml streptomycin, and 550 μg/ml sodium pyruvate. Whole-cell currents were recorded using the two-microelectrode voltage-clamp technique. During recording sessions, the holding potential was maintained at −80 mV using an OC-725C oocyte clamp (Warner Instruments, LLC). Oocytes were placed in a RC-3Z oocyte recording chamber (Warner Instruments) and exposed for 8 s to 200 μM VUAA1 (Innovapharm Ltd), 2,4-octadienal predominantly trans (Sigma-Aldrich), or carvacrol (Sigma-Aldrich). All compounds were solubilized in 200 μl of DMSO prior to the dilutions in the Ringer’s solution. Currents were allowed to return to baseline between odorant applications. Data acquisition and concentration–response analyses were carried out with a Digidata 1550A and the pCLAMP10 software (Molecular Devices). Statistical significance was evaluated with one-way ANOVA followed by Tukey's post test.

Ae. albopictus = test: Repellence bioassay, human hand landing counts; type: in vivo, Aedes albopictus
AgamORco = target: T2, AgamORco (Anopheles gambiae, UniProt Q7QCC7); test: cell-based
T2 sequence (Q7QCC7 1-478): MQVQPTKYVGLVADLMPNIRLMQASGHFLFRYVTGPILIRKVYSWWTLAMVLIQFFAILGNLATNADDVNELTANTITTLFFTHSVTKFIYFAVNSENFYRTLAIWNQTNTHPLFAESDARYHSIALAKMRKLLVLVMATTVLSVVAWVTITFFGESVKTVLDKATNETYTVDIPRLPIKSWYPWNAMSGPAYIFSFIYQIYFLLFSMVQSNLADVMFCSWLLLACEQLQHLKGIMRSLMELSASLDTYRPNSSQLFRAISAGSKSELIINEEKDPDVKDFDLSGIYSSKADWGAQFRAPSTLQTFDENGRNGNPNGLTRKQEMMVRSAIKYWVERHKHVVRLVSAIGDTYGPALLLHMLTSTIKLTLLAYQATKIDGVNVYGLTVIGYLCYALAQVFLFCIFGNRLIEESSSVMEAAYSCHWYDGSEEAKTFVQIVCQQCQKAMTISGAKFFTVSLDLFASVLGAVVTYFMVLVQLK

Bm5 cells = test: Toxicity to the AgamORco/Photina-expressing Bm5 cells during dose-response evaluation; type: cell-based; conditions: Bombyx mori, Bm5 cells stably expressing AgamORco and Photina
[1] = 0.01 μL equivalent per cm^2, 5 min
[2] = 0.04 μL equivalent per cm^2, 5 min
[3] = 0.2 μL equivalent per cm^2, 5 min
[4] = 50 μM ORcoRAM2 (OA), read-out: IC50 in binding competition assay
[5] = 50 μM ORcoRAM2 (OA), read-out: pIC50 in binding competition assay (converted)
[6] = 100 μM ORcoRAM2 (OA), read-out: IC50, inhibition of OA-dependent AgamORco channel activity
[7] = 100 μM ORcoRAM2 (OA), read-out: pIC50, inhibition of OA-dependent AgamORco channel activity (converted)
[8] = 150 μM ORcoRAM2 (OA), read-out: IC50 in binding competition assay
[9] = 150 μM ORcoRAM2 (OA), read-out: pIC50 in binding competition assay (converted)

EC50 (AgamORco; absence of antagonist, read-out: EC50 of ORco agonist on AgamORco)	Compound	Reduction of VUAA1-activated currents (AaegORco)	Normalized response (%) of AaegORco to VUAA1 in combination with compound (AaegORco)	Mean % repellency (Ae. albopictus; [1])	Average landings (+ st. dev) (Ae. albopictus; 0.01 μL per cm2, 5 min)	Mean % repellency (Ae. albopictus; [2])	Average landings (+ st. dev) (Ae. albopictus; 0.04 μL per cm2, 5 min)	Mean % repellency (Ae. albopictus; [3])	Average landings (+ st. dev) (Ae. albopictus; 0.2 μL per cm2, 5 min)	IC50 (AgamORco; [4])	IC50 (AgamORco; [5])	IC50 (AgamORco; [6])	IC50 (AgamORco; [7])	IC50 (AgamORco; [8])	IC50 (AgamORco; [9])	Concentrations toxic to the cells (Bm5 cells)
–	CCC/C=C/C=C/C=O [OCT, (2E,4E)-2,4-Octadienal]	approximately 60%	-59.5%	13.8% and 13.8 ± 12.8%	47.1±7.0	97.9 ± 2.7%	1.1±1.5	100 ± 0%	0±0	41.8 µM	41.8 µM	59.8 µM	59.8 µM	117 µM	117 µM	–
–	C=CC(C)(CCC=C(C)C)OC(C)=O (stereo not drawn) [LA, Linalyl acetate]	–	–	–	–	–	–	72.3 ± 15.6%	14.6±8.1	–	–	–	–	–	–	–
91.3 µM and 91.9 µM and 91 µM	CCc1ccc(NC(=O)CSc2nnc(-c3ccccn3)n2CC)cc1 [ORcoRAM2, reference compound]	–	–	–	–	–	–	–	–	–	–	–	–	–	–	–
–	CC(C)c1ccc(CO)cc1 [CA, Cumin alcohol]	–	–	63.2% and 63.2 ± 11.8%	20.1±6.5	78 ± 7%	11.8±3.7	99.8 ± 0.7%	0.1±0.4	–	–	–	–	–	–	–
–	CC(C)OC(=O)C=Cc1ccccc1 [IPC, Isopropyl cinnamate, reference compound]	–	–	–	–	–	–	96 ± 1.6%	2.1±0.8	–	–	–	–	–	–	–
–	Cc1ccc(C(C)C)cc1O [CRV, Carvacrol]	~85%	-84.8%	67.8% and 67.8 ± 9%	17.6±4.9	99.1 ± 2%	0.5±1.1	99.8 ± 0.7%	0.1±0.4	26.3 µM	26.3 µM	23.4 µM	23.3 µM	28.4 µM	28.4 µM	above 250 μM
–	CCN(CC)C(=O)c1cccc(C)c1 [DEET, N,N-Diethyl-3-methylbenzamide, reference compound]	–	–	96.7% and 96.7 ± 2.6%	1.8±1.4	100 ± 0%	0±0	100 ± 0%	0±0	–	–	–	–	–	–	–
–	CC1=CCC2[C@H](C1)C2(C)C (stereo partly drawn) [CAR, (1S)-3-Carene]	–	–	–	–	–	–	89.8 ± 4.3%	5.4±2.3	–	–	–	–	–	–	–
